Data published in patent publication US20260217701A1, “SELECTIVE BET INHIBITORS AND USES THEREOF” (Tay Therapeutics Limited, priority 2022, published 2026).
Marks after values point to notes of the source that are not given here.

What was measured:
[1] = tested on: IL-22, IFNγ, TNF, IL-17A, IL-12/IL-23p40; experiment: EAE study: serum cytokine analysis (Luminex); type: in vivo, C57BI/6 mice
Experimental: Experimental Method H: EAE in animals treated with a BET inhibitor and vehicle. Animals were assigned to the groups outlined in Table 38.
Compound A may be formulated as illustrated in Experimental Method A (see Table 2E.). A 40 mg/mL stock solution of Compound A in DMSO was prepared and aliquots stored at −20° C. On each day of preparation an e.g., 0.75 mL aliquot of thawed stock was diluted with an equal volume of DMSO. The remaining vehicle components were added to provide the highest dose and then diluted with vehicle to provide lower doses. A 30 mg/mL stock solution of FTY720 in ethanol was prepared and stored at −20° C. Daily, the stock solution was diluted with room temperature water to a final dosing concentration of 0.6 mg/mL. Formulated Compound A, FTY720 and vehicle were each at room temperature for dosing.
Female C57BI/6 mice (9 weeks old) were acclimated for seven days prior to study initiation. On Day-1, animals were assigned to groups in a balanced manner to achieve similar average weights across the different groups. Chronic EAE was induced in female C57BI/6 mice following immunization with an emulsion of MOG35-55/CFA on Day 0, followed by an injection of pertussis toxin two hours after the initial immunization. On Day 1, a second injection of pertussis toxin was administered 24 hours after the initial immunization. Mice were injected subcutaneously at two sites on the back with the MOG35-55/CFA emulsion (Hooke Kit™ MOG35-55/CFA Emulsion PTX). The first injection site was located approximately 1 cm caudal of the neckline (upper back), and the second injection site was approximately 2 cm cranial of the base of the tail (lower back). The injection volume was 0.1 mL for each injection. The pertussis toxin was administered at the described times through intraperitoneal injection at a concentration of 85 ng/dose for both injections.
On Day 28, all surviving mice except those in the FTY720 group had blood collected via retro-orbital sinus into serum separator tubes. Serum was isolated, frozen on dry ice, and stored at −80° C. for cytokine analysis. Cytokine analysis was performed using Luminex in serum samples, and the cytokines IL-22, IFNγ, TNF, IL-17A, IL-12/IL-23p40 were assessed.

[2] = UUO study: clinical observations; type: in vivo; conditions: UUO rats; 10 mg/kg
lupus = experiment: SLE (lupus) model: proteinuria scores; type: in vivo, MRL/MpJ-Faslpr mice; conditions: for End proteinuria score ± SEM: end of study (Week 19)
Experimental: Female MRL/MpJ-Faslpr mice (The Jackson Laboratory) were used to assess the efficacy of Compound A in treating lupus. Starting when animals were 10 weeks of age, protein concentration in urine was measured using urine dipsticks.
At the start of the study, each group in the study had two animals that were 9 weeks old, and all others were 10 weeks old. Dosing of all animals with the test compounds began when the older animals were 11 weeks old. […] […] Dosing was at a consistent time each dosing day throughout the study.
Compound A may be formulated as illustrated in Experimental Method A (see Table 2E.). […] A stock solution of Compound A in DMSO (stock solution concentration of Compound A of 40 mg/mL) was prepared and aliquots for weekly preparations were frozen at −20° C. On each preparation day, a stock solution aliquot was thawed and diluted with other vehicle components to the desired concentration. Formulated Compound A and vehicle were at room temperature for dosing.
The study began when the older animals were 11 weeks old, and concluded when the older animals were 19 weeks old. Body weight was recorded once a week, with the exception of two weight measurements taken the first week of the study (when the older animals were 11 weeks old). Proteinuria was measured in the urine of animals with urine dipsticks once a week, starting when the older animals were 10 weeks old. […] Blood samples were taken retro-orbitally at the start of the study to establish a baseline (15 animals, 3 per group), and when the older animals were 16 weeks (all animals) and when animals were 19 weeks (all animals) at the conclusion of the study. Blood urea nitrogen (BUN) was measured in all animals at study termination in blood samples. After blood collection, animals were euthanized, perfused with PBS, and the left kidneys were collected and weighed and fixed in 10% buffered formalin. Left kidneys were then processed to a formalin-fixed, paraffin-embedded (FFPE) block, and histology was analyzed in Periodic Acid-Schiff-stained sections (1 section per slide), using the criteria described in Alperovich et al., Lupus, 16:18-24 (2007). Right kidneys were weighed and snap-frozen at −80° C. Spleens were also collected and weighed. SLE in animals treated with a BET inhibitor and vehicle.

## Cn1cc(-c2ccccc2)c(-c2cn(C)c(=O)c3[nH]c(-c4cnn(C(F)(F)F)c4)cc23)cc1=O [Compound A, 6-methyl-4-(1-methyl-2-oxo-5-phenyl-1,2-dihydropyridin-4-yl)-2-(1-(trifluoromethyl)-1H-pyrazol-4-yl)-1,6-dihydro-7H-pyrrolo[2,3-c]pyridin-7-one]
[1]; Compound A 1 mg/kg, Day 28
  IFNγ Mean Concentration (pg/mL) and (SEM): 1.9 (0.8) pg/mL
  IL-12/IL-23p40 Mean Concentration (pg/mL) and (SEM): 34.7 (4.8)* pg/mL
  IL-17A Mean Concentration (pg/mL) and (SEM): 0.5 (0.3) pg/mL
  IL-22 Mean Concentration (pg/mL) and (SEM): 3.5 (1.4) pg/mL
  TNF Mean Concentration (pg/mL) and (SEM): 0.8 (0.4) pg/mL
[1]; Compound A 3 mg/kg, Day 28
  IFNγ Mean Concentration (pg/mL) and (SEM): 1.8 (0.4)* pg/mL
  IL-12/IL-23p40 Mean Concentration (pg/mL) and (SEM): 27.7 (4.9)** pg/mL
  IL-17A Mean Concentration (pg/mL) and (SEM): 1.6 (0.9) pg/mL
  IL-22 Mean Concentration (pg/mL) and (SEM): 6.1 (3.0) pg/mL
  TNF Mean Concentration (pg/mL) and (SEM): 1.4 (0.4) pg/mL
[1]; Compound A 10 mg/kg, Day 28
  IFNγ Mean Concentration (pg/mL) and (SEM): 0.6 (0.1)*** pg/mL
  IL-12/IL-23p40 Mean Concentration (pg/mL) and (SEM): 17.4 (1.5)*** pg/mL
  IL-17A Mean Concentration (pg/mL) and (SEM): 0.4 (0.3) pg/mL
  IL-22 Mean Concentration (pg/mL) and (SEM): 3.0 (0.7) pg/mL
  TNF Mean Concentration (pg/mL) and (SEM): 0.4 (0.1) pg/mL
[1]; Day 28
  Concentration of IL-22, TNF, and IL-17A relative to vehicle: nor were significant changes measured
[1]; Day 28, 1 mg/kg, 3 mg/kg, and 10 mg/kg
  Concentration of IL-12/IL23p40: dose dependent significant decreases
[1]; Day 28, 3 mg/kg and 10 mg/kg
  IFNγ concentrations: dose dependent significant decrease
[2]
  Clinical observations assessed daily: soft stools on just one study day
lupus; 10 mg/kg, Week 19
  Proteinuria levels, lower than vehicle-treated group: about 74.8%
lupus; 1, 3, 10 mg/kg
  Proteinuria levels: reduced proteinuria levels in a dose-dependent manner
lupus; Compound A 1 mg/kg PO QD, Week 10
  Mean proteinuria score: 1.96
lupus; Compound A 1 mg/kg PO QD, Week 11
  Mean proteinuria score: 1.96 +
lupus; Compound A 1 mg/kg PO QD, Week 12
  Mean proteinuria score: 2.29
lupus; Compound A 1 mg/kg PO QD, Week 13
  Mean proteinuria score: 2.57
lupus; Compound A 1 mg/kg PO QD, Week 14
  Mean proteinuria score: 2.79
lupus; Compound A 1 mg/kg PO QD, Week 15
  Mean proteinuria score: 3.07
lupus; Compound A 1 mg/kg PO QD, Week 16
  Mean proteinuria score: 2.82
lupus; Compound A 1 mg/kg PO QD, Week 17
  Mean proteinuria score: 3.07
lupus; Compound A 1 mg/kg PO QD, Week 18
  Mean proteinuria score: 3.11±
lupus; Compound A 1 mg/kg PO QD, Week 19
  Mean proteinuria score: 3.36
lupus; Compound A 1 mg/kg PO QD
  End proteinuria score ± SEM: 3.36 ± 0.19
lupus; Compound A 3 mg/kg PO QD, Week 10
  Mean proteinuria score: 1.96
lupus; Compound A 3 mg/kg PO QD, Week 11
  Mean proteinuria score: 1.96
lupus; Compound A 3 mg/kg PO QD, Week 12
  Mean proteinuria score: 2.04
lupus; Compound A 3 mg/kg PO QD, Week 13
  Mean proteinuria score: 2.50
lupus; Compound A 3 mg/kg PO QD, Week 14
  Mean proteinuria score: 2.46
lupus; Compound A 3 mg/kg PO QD, Week 15
  Mean proteinuria score: 2.85
lupus; Compound A 3 mg/kg PO QD, Week 16
  Mean proteinuria score: 2.65
lupus; Compound A 3 mg/kg PO QD, Week 17
  Mean proteinuria score: 2.77
lupus; Compound A 3 mg/kg PO QD, Week 18
  Mean proteinuria score: 2.73
lupus; Compound A 3 mg/kg PO QD, Week 19
  Mean proteinuria score: 3.04
lupus; Compound A 3 mg/kg PO QD
  End proteinuria score ± SEM: 3.04 ± 0.24
lupus; Compound A 10 mg/kg PO QD, Week 10
  Mean proteinuria score: 1.96
lupus; Compound A 10 mg/kg PO QD, Week 11
  Mean proteinuria score: 1.96
lupus; Compound A 10 mg/kg PO QD, Week 12
  Mean proteinuria score: 2.04
lupus; Compound A 10 mg/kg PO QD, Week 13
  Mean proteinuria score: 2.21
lupus; Compound A 10 mg/kg PO QD, Week 14
  Mean proteinuria score: 2.07
lupus; Compound A 10 mg/kg PO QD, Week 15
  Mean proteinuria score: 2.43
lupus; Compound A 10 mg/kg PO QD, Week 16
  Mean proteinuria score: 2.32
lupus; Compound A 10 mg/kg PO QD, Week 17
  Mean proteinuria score: 2.32
lupus; Compound A 10 mg/kg PO QD, Week 18
  Mean proteinuria score: 2.00
lupus; Compound A 10 mg/kg PO QD, Week 19
  Mean proteinuria score: 2.32
lupus; Compound A 10 mg/kg PO QD
  End proteinuria score ± SEM: 2.32 ± 0.15
